Source: US20240025849A1 (MAX DELBRÜCK-CENTRUM FÜR MOLEKULARE MEDIZIN IN DER …, priority 2020, published 2024)
Values joined by “and” are separate entries in the source; they are usually repeats but may differ in a detail not shown here. Identical values can stand only once. “Also recorded” adds a separate entry of the source.

Key:
iNOS = assay: NOS enzyme activity assay (Eurofins), iNOS; type: biochemical; conditions: C1: 1 μM up to 5 μM as printed; 30 min reaction
Protocol: In mammalians NO is produced by the three isoforms of NOS: iNOS, eNOS, and nNOS. To evaluate the direct influence of cl on the different isoforms of NOS, an enzyme activity assay was conducted by Eurofins. C1 was mixed with the enzyme buffer, which included co-factors and substrates and by adding the enzyme the reaction was initiated. After 30 min the reaction was stopped, and NO concentration was measured. The results are normalised to positive control performed without any additional compounds and are presented as percentage in inhibition. […] To test the compounds effect on iNOS a concentration range from […] 5 μM were applied ([…], 1, 10, 100 nM, 1, and 5 μM), and for testing eNOS and nNOS 1 nM and 1 μM were applied.

Microglial cells = assay: Microchemotaxis assay (Boyden chamber): chemotaxis and motility; type: cell-based, mouse
Protocol: Microchemotaxis assay. The effect of the compound on directed migration and general motility was tested using a 48-well microchemotaxis Boyden chamber (Neuroprobe, Gaithersburg, USA). Upper and lower wells were separated by polycarbonate filter (8 μm pore size; Poretics). Microglial cells (2-4×10^4 cells) in 50 μl plain medium were added to the upper compartment. In addition, 2.5 μM of compound in DMSO, 125×10-5 v/v DMSO respectively, and/or 100 μM ATP were added to the upper and/or lower chamber, as shown in FIG. 3A. Plain medium was used as a control. The chamber was incubated at 37° C. and 5% CO2 for 6 h. Cells remaining on the upper surface of the membrane were removed by wiping, and cells in the lower compartment were fixed in methanol for 10 min and subjected to Diff-Quik stain (Medion Grifols Diagnostics AG, Dudingen, Switzerland). The rate of microglial migration was calculated by counting cells in four random fields of each well using a 20×bright-field objective. All data were normalised to ATP induced chemotaxis.

[1] = test system: bone marrow derived macrophages; assay: NO release in bone marrow derived macrophages, Griess assay; type: cell-based, mouse; conditions: for NO release: 0.25 μM C1; for NO release, % of positive control: 2.5 μM C1
Protocol: Primary cultured macrophages. Bone marrow macrophages were isolated from C57BL/6 adult mice (P49-56) as previously described (Marim et al., 2010). In summary, mice were killed by cervical dislocation and the femurs were removed by cutting through the tibia near the pelvic bone and below the knee. Any muscle connected to the bone was carefully removed. Ice cold sterile PBS was slowly flushed through the bone and the contents were collected in a sterile 15 mL polypropylene tube on ice. After centrifugation for 10 min at 200 g at 4° C., red blood cells were lysed by adding 3-10 mL ammonium chloride solution. After a 3-5 min recovery period, the suspension was centrifuged for 10 min at 200 g at 4° C. and the supernatant was removed. Cells were plated in a 10 cm dish with plain medium containing 10 ng/mL M-CSF and cultured for 7 days to allow differentiation. 50 000 cells were plated with 200 μL medium per well in a 96 well plate.
Griess assay. Cells were seeded according to the protocols described above, after compounds and stimuli were added, 100 μl of supernatant was transferred into a new 96 well plate and 100 μl freshly mixed Griess reagent were added. Griess reagent was composed of reagent A (100 mg Naphthylethylene in 50 ml aqua dest.) and reagent B (1 g Sulfanilamide, […] H3PO4 (85%) in 44 mL aqua dest.) mixed 1:1. The solution was carefully mixed and the absorbance was determined in a microplate reader at a wavelength of 550 nm.
Microglia and macrophages share many of their immune properties, therefore the inventors evaluated the impact of C1 on the release of NO and the pro-inflammatory cytokines IL1β, IL6, and TNFα on bone marrow derived macrophages (Amici et al., 2017; Li and Barres, 2017). Bone marrow derived macrophages were isolated from adult mice and pre-treated for 1 hour with C1 (0.025 μM, 0.25 μM, or 2.5 μM), its corresponding concentration of DMSO (1.25×10-5, 12.5×10-5, or 125×10-5 v/v), or plain medium before a stimulus was added. The NO release was measured after stimulation with either 1 μg/ml LPS for 48 hours (FIG. 2-1A), 100 μg/mL PolyIC for 24 hours (FIG. 2-1B) or 100 ng/ml IFNγ for 48 hours (FIG. 2-1C). […] DMSO had no effect on the NO release in bone marrow derived macrophages stimulated with LPS or PolyIC (FIGS. 2-1A and B). However, it reduced the IFNγ induced NO release in these cells independently of the applied dose (1.25×10-5 v/v: 85%, p<0.0043; 12.5×10-5 v/v: 83%, p<0.0016; 125×10-5 v/v: 85%, p<0.0046, FIG. 2-1C), similar to the effect observed in microglia when stimulated with IFNγ (FIG. 2A).

[2] = test system: primary cultured neonatal astrocytes; assay: AlamarBlue assay in astrocytes; type: cell-based; conditions: 2.5 μM C1, 48 hours, unstimulated
Protocol: Primary cultured neonatal astrocytes. The preparation of primary cultured neonatal astrocytes followed the preparation of the primary cultured neonatal microglia, described above. After the third shake off, the remaining astrocytes were trypsinated, washed with PBS and seeded into a 96 well plate (10 000 cells/well, 200 μL medium per well).
AlamarBlue assay. Cells were seeded according to the protocols described above, after compounds and stimuli were added, the cells were washed once with HBSS (37° C.) and 100 μl of a 1:10 AlamarBlue (Thermo Fisher Scientific) dilution in plain medium was added. The conversion of resazurin to resorufin was measured by absorbance (absorbance wavelength of 570 nm and a reference wavelength of 600 nm) after 3 hours.
The inventors evaluated the metabolic activity, proliferation and cell death of primary cultured neonatal microglia, primary cultured neonatal astrocytes and the oligodendrocyte cell line OLN-93 under physiological conditions. All cells were treated with 2.5 μM C1 in DMSO or the corresponding DMSO concentration (125×10-5 v/v) for 48 hours without any additional stimulation followed by either an AlamarBlue assay to measure the metabolic activity, or an propidium iodide based proliferation and cell death assay. The data of the AlamarBlue assay and proliferation assay were normalised to the plain medium control. […]

Compound: COc1ccc(NC(=O)C(NC(=O)C2CCCN2C(=O)OCc2ccccc2)c2ccc(OC)cc2)cc1 (stereo not shown) [C1]
- enzymatic activity of iNOS (iNOS): does not interfere
- ATP induced motility (Microglial cells; 2.5 μM C1, 100 μM ATP): neither changed; also recorded: not altered
- microglial motility (Microglial cells; 2.5 μM C1 on both sides of the chamber): reduced in the presence of C1 significantly compared to plain medium (p=0.0018) but not to DMSO; also recorded: did not significantly affect motility compared to the DMSO control, however it did, when compared to the plain medium control
- chemotaxis (cells migrating towards C1) (Microglial cells; gradient of 2.5 μM C1, 6 h): increased chemotaxis significantly; also recorded: significantly higher
- NO release ([1]; 1 μg/mL LPS 48 hours): reduced the NO release significantly
- NO release ([1]; 100 μg/mL PolyIC 24 hours): significant decrease
- NO release, % of positive control ([1]; 100 ng/mL IFNγ 48 hours): 18%
- NO release, % of positive control ([1]; 100 μg/mL PolyIC 24 hours): 15.01±10.32% and 15%
- NO release, dose dependence ([1]; 0.025, 0.25, 2.5 μM C1, LPS, PolyIC or IFNγ): reduced the NO release in a dose dependent manner
- metabolic activity of astrocytes [2]: no influence; also recorded: not affected
